# Data published in PMC8535490, “Biotransformation of Flavonoids Improves Antimicrobial and Anti-Breast Cancer Activities In Vitro” (Foods, 2021).
# Read-outs that look alike come from different tables or passages of the source.
# Tests used:
# E. coli ATCC25922 = test: Antimicrobial activity assay (broth culture in 96-well plate, CCK8 staining, MIC/MBC); type: cell-based, Escherichia coli; settings: for Growth inhibition / MBC / MIC: E. coli ATCC25922; for MBC / MIC: Escherichia coli, tested at 15–400 µM
# Experimental: (§1) Antimicrobial biological activities of the tested compounds were evaluated as Zhong et al., with some modifications. Gram-positive and -negative bacteria and fungi (S. aureus ATCC6538, E. coli ATCC25922, and C. albicans SC5314) were selected for evaluation in the present study. S. aureus ATCC6538 and E. coli ATCC25922 were cultured with Luria-Bertani medium, while for C. albicans SC5314, potato dextrose broth medium was used for 24 h at 37 °C (bacterial suspension in 1 × 10^6 CFU/mL). […] Each strain was, respectively, transferred into a 96-well plate at 100 µL/well (90 µL bacterial suspension and 10 µL sample solution) after adding different concentrations of samples, followed by incubation for 12–16 h. The optical density at 650 nm (OD650) of C. albicans SC5314 was measured after TTC staining, while S. aureus ATCC6538 and E. coli ATCC25922 were stained for CCK8 before measurement.
# S. aureus ATCC6538 = test: as above; type: cell-based, Staphylococcus aureus; settings: for Growth inhibition: S. aureus ATCC 6538; for MBC / MIC: S. aureus ATCC6538, tested at 15–400 µM
# Experimental: as §1
# C. albicans SC5314 = test: Antimicrobial activity assay (broth culture in 96-well plate, TTC staining, MIC/MBC); type: cell-based, Candida albicans; settings: for MBC / MIC: tested at 15–400 µM
# Experimental: as §1
# [1] = system: MCF-7 human breast cancer cells; test: Antiproliferative activity, methylene blue assay; type: cell-based; settings: MCF-7 cells; for IC50: 72 h, mean ± SD, n = 3; for Increase in antiproliferation potency compared to unmethylated substrate: ratio of IC50 values
# Experimental: (§2) Analysis of the antiproliferative activity of the test compounds was performed according to Zhu et al., with some modifications. MCF-7 human breast cancer cells were provided by the Cell Resource Center of the Chinese Academy of Sciences (Shanghai, China). Cell proliferation and cytotoxicity of anticancer activity were assessed using the methylene blue assay. For cell proliferation and cytotoxicity, MCF-7 cells were culture in a 96-well plate at 1.5 × 10^5 cells/well and at 3 × 10^5 cells/well, respectively. Various concentrations (75–400 µM) of the test samples were added to a growth medium containing MCF-7 cells followed by cultivation for […]. Following incubation for 72 h, cell proliferation was measured with an absorbance of 570 nm using a microplate reader (Bio-Rad, Hercules, MA, USA), while cell cytotoxicity measurement was carried out 24 h after incubation.
# [2] = system: MCF-7 human breast cancer cells; test: Cytotoxicity, methylene blue assay; type: cell-based; settings: at a concentration corresponding to the IC50 (hesperetin 150 μM), 24 h
# Experimental: as §2
# [3] = Candida albicans, C. albicans SC5314
# [4] = Candida albicans, C. albicans SC5314, read-out: MBC
Compound,Growth inhibition (E. coli ATCC25922),Growth inhibition (S. aureus ATCC6538),Increase in antiproliferation potency compared to unmethylated substrate [1],Cytotoxicity on MCF-7 cells [2],MIC (C. albicans SC5314; [3]) [µM],MBC (C. albicans SC5314; [4]) [µM],"IC50 ([1]; Homo sapiens, MCF7) [µM]",also measured
7-methoxy-naringenin [Compound 2a],failed to inhibit the growth,failed to inhibit the growth,1.34 fold,highest,–,–,–,"Increase of highest antimicrobial activity compared to naringenin (C. albicans SC5314; C. albicans SC5314, highest activity): 182.12%; MBC (C. albicans SC5314; C. albicans SC5314): >400 >400 μM; MIC (C. albicans SC5314; C. albicans SC5314): 75 µM; IC50 [1]: 93.6 ± 1.06 µM; Cytotoxicity on MCF-7 cells ([2]; listed as 7-methoxynaringenin): Slight cytotoxicity"
"O=C1C[C@@H](c2ccc(O)cc2)Oc2cc(O)ccc21 [Compound 1, liquiritigenin, reference compound]",–,–,–,Slight cytotoxicity,25,> 400,101 ± 1.83,MBC (E. coli ATCC25922): > 400 µM; MIC (E. coli ATCC25922): 25 µM; MBC (S. aureus ATCC6538; Staphylococcus aureus): > 400 µM; MIC (S. aureus ATCC6538; Staphylococcus aureus): 75 µM
"COc1ccc2c(c1)O[C@H](c1ccc(O)cc1)CC2=O [Compound 1a, 7-methoxy-liquiritigenin]",–,–,8.99 fold,Slight cytotoxicity,25,> 400,11.2 ± 0.6,"Increase of antimicrobial activity compared to liquiritigenin (E. coli ATCC25922; E. coli ATCC25922, 400 μM): 54.41%; Increase of inhibitory effect compared to unmethylated counterpart (E. coli ATCC25922; E. coli ATCC25922, 400 μM): 0.54 fold; MBC (E. coli ATCC25922): > 400 µM; MIC (E. coli ATCC25922): 15 µM; Increase of antimicrobial activity compared to liquiritigenin (S. aureus ATCC6538; S. aureus ATCC6538, 250 μM): 148.77%; Increase of inhibitory effect compared to unmethylated counterpart (S. aureus ATCC6538; S. aureus ATCC6538, 250 μM): 1.49 fold; MIC (S. aureus ATCC6538): 75 µM; MBC (S. aureus ATCC6538; Staphylococcus aureus): > 400 µM; MIC (S. aureus ATCC6538; Staphylococcus aureus): 75 µM; Increase (MIC) compared to the unmethylated substrate (C. albicans SC5314; C. albicans SC5314): 3 fold; Increase of antimicrobial activity compared to liquiritigenin (C. albicans SC5314; C. albicans SC5314, 200 μM): 765.64%; Increase of inhibitory effect compared to unmethylated counterpart (C. albicans SC5314; C. albicans SC5314, 200 μM): 7.65 fold; MIC (C. albicans SC5314; C. albicans SC5314): 25 µM"
"O=C1C[C@@H](c2ccc(O)cc2)Oc2cc(O)cc(O)c21 [Compound 2, naringenin, reference compound]",failed to inhibit the growth,failed to inhibit the growth,–,Slight cytotoxicity,75,> 400,126 ± 2.76,–
"COc1ccc([C@@H]2CC(=O)c3c(O)cc(O)cc3O2)cc1O [Compound 3, hesperetin, reference compound]",failed to inhibit the growth,failed to inhibit the growth,–,Slight cytotoxicity,75,> 400,> 150,–
"COc1ccc([C@@H]2CC(=O)c3c(O)cc(O)cc3O2)cc1OC [Compound 3a, 3’-methoxy-hesperetin]",failed to inhibit the growth,failed to inhibit the growth,more than 14.35 fold,Slight cytotoxicity,50,> 400,10.5 ± 0.45,–
"COc1cc(O)c2c(c1)O[C@H](c1ccc(OC)c(O)c1)CC2=O [Compound 3b, 7-methoxy-hesperetin]",failed to inhibit the growth,failed to inhibit the growth,–,lowest,25,> 400,30.7 ± 0.72,Cytotoxicity on MCF-7 cells ([2]; listed as 7-methoxyhesperetin): No cytotoxicity
"COc1cc(O)c2c(c1)O[C@H](c1ccc(OC)c(OC)c1)CC2=O [Compound 3c, 7,3’-dimethoxy-hesperetin]",failed to inhibit the growth,failed to inhibit the growth,–,Slight cytotoxicity,75,> 400,31 ± 1.44,–
